The series is described as follows: Stability comparison for free base and salts: weight gain or loss on exposure to air in the laboratory. It counts as physicochemical. The following applies: for hygroscopicity (in words): handling, exposure to air. As for the experimental part:
To further characterize the stability of the free amine and salts of 2-amino-N-(2,2,2-trifluoroethyl)acetamide the following experiments were performed. Samples of the free amine and salts were exposed to air in the laboratory for a period of time. Weight […] or loss compared to the original sample was determined

Consider `NCC(=O)NCC(F)(F)F` [Free base, 2-amino-N-(2,2,2-trifluoroethyl)acetamide], for which the “sensitivity to air (in words)” value is recorded as “sensitive to air”, the “weight gain upon exposure to the ambient atmosphere (in words)” value is reported as “showed weight gain” and the “hygroscopicity (in words)” value is “hygroscopic”. Besides, the “% Weight gain (loss)” value (3 days in ambient atmosphere, parentheses = loss) turned out to be 4.65%.
Consider `Cl.NCC(=O)NCC(F)(F)F` [Hydrochloride, 2-amino-N-(2,2,2-trifluoroethyl)acetamide hydrochloride], for which the “weight gain upon exposure to the ambient atmosphere (in words)” value is recorded as “did not” and the “hygroscopicity (in words)” value is “not hygroscopic”.
